Measured values as given in publication PMC2360237, “A phase Ib study of pertuzumab, a recombinant humanised antibody to HER2, and docetaxel in patients with advanced solid tumours” (British Journal of Cancer, 2007).
Read-outs that look alike come from different tables or passages of the source.

Key:
[1] = system: refractory ovarian cancer; HRPC; details: cited from earlier work
[2] = Pertuzumab serum pharmacokinetics (receptor-binding ELISA, non-compartmental) in phase Ib patients; details: for AUC0-last mean (range) / AUC0-∞ mean (range) / Cl mean (range) / Cmax mean (range) / Vss mean (range): serum
Experimental: (§1) In the first treatment cycle, blood withdrawal for PK analysis was performed 15 and 30 min prior to administration of docetaxel and 15 and 30 min and 1, 2, 4, 8 and 23 h, post administration. Pertuzumab was administered at least 24 h after, on day 2, followed by PK analysis at 15 min and 1.5, 4 and 8 h. In the second cycle, pertuzumab was administered on day 1, immediately followed by the administration of docetaxel and sampling for PK analysis was repeated for both drugs. Plasma samples of docetaxel were analysed using a validated specific liquid chromatography-mass spectrometry (LC-MS/MS) method as described previously ([Agus et al, 2005]). Serum samples were assayed for pertuzumab concentrations using a receptor-binding, enzyme-linked immunosorbent assay. The assay uses immobilised antigen p185^HER2 ECD to capture pertuzumab from serum samples. Bound pertuzumab was detected with mouse anti-human Fc-horseradish peroxidase (Jackson ImmunoResearch Laboratories Inc., West Grove, PA, USA), and tetramethyl benzidine (KPL Inc., Gaithersburg, MD, USA) used as the substrate for colour development to quantify serum pertuzumab against a known standard curve. The assay has a minimum quantifiable concentration of 0.25 μg ml^−1 for pertuzumab in human serum. Pharmacokinetic parameters for docetaxel and pertuzumab were estimated using non-compartmental methods (WinNonLin software version 5.0.1).

[3] = system: patients with advanced solid tumours
Experimental: This was a phase Ib, open-label, two-center study. […] Pertuzumab was provided by F Hoffmann-La Roche (Basel, Switzerland). Each 10 ml single-use vial contained 175 mg of pertuzumab formulated in 10 mmol l^−1 L-histidine (pH6.0), 240 mmol l^−1 sucrose, and 0.02% polysorbate 20. The first dose of pertuzumab was given by intravenous infusion over 90 min. […] Initially, the planned dose of pertuzumab was fixed dose at 1050 mg for each dose level. […] The dose of docetaxel was sequentially escalated from 60 to 75 to 100 mg m^−2 as outlined in Table 1. […] Initially, three patients were treated in cohort 1, with the first patient being monitored for at least 2 weeks before additional patients were treated. Escalation to a new dose level was permitted when at least two of three patients had been evaluated for 3 weeks. […] At least six patients were to be treated at the 75 and 100 mg m^−2 dose levels before a recommended phase II dose was declared. […]
The incidence and severity of all adverse events, changes in vital signs, laboratory assessments, physical examination findings, and medical conditions during and after treatment with pertuzumab were assessed at least weekly during the first two cycles, and at least weekly three times thereafter, and graded according to NCI-CTC Version 3. […]

[4] = system: patients with advanced cancer; details: cited from earlier work
[5] = Docetaxel plasma pharmacokinetics (LC-MS/MS, non-compartmental) alone and with pertuzumab in phase Ib patients; type: in vivo, human; details: for AUC(0-inf) / Cmax / half-life: human, plasma, intravenous; for AUC(0-inf): read-out: AUC0-∞ mean (range); for Cmax: read-out: Cmax mean (range); for half-life: read-out: t1/2 mean (range) (converted)
Experimental: as §1

[6] = pertuzumab 420 mg, cycle 2, n=10, in combination with docetaxel
[7] = pertuzumab 840 mg (loading dose), cycle 1, n=11, in combination with docetaxel
[8] = pertuzumab 1050 mg, cycle 1, n=8, in combination with docetaxel
[9] = pertuzumab 1050 mg, cycle 2, n=7, in combination with docetaxel
[10] = Cohort 1, docetaxel 60 mg m^−2 + pertuzumab 1050 mg, cycle 2, n=6, plasma
[11] = Cohort 1, docetaxel 60 mg m^−2 alone, cycle 1, n=6, plasma
[12] = Cohort 2A, docetaxel 75 mg m^−2 + pertuzumab 420 mg, cycle 2, n=6, plasma
[13] = Cohort 2A, docetaxel 75 mg m^−2 alone, cycle 1, n=6, plasma
[14] = Cohort 3A, docetaxel 100 mg m^−2 + pertuzumab 420 mg, cycle 2, n=4, plasma
[15] = Cohort 3A, docetaxel 100 mg m^−2 alone, cycle 1, n=5, plasma
[16] = 60 mg m^−2, Cohort 1, docetaxel 60 mg m^−2 alone, cycle 1, n=6, plasma
[17] = 75 mg, Cohort 2A, docetaxel 75 mg m^−2 alone, cycle 1, n=6, plasma
[18] = 100 mg, Cohort 3A, docetaxel 100 mg m^−2 alone, cycle 1, n=5, plasma

pertuzumab: fully humanised monoclonal antibody, which acts by blocking the association of HER2 with other HER family members
Anti-tumour activity ([1]; single-agent pertuzumab, refractory ovarian cancer, ref Gordon et al, 2006): Significant anti-tumour activity
Anti-tumour activity ([1]; single-agent phase II study, HRPC, ref De Bono et al, 2007): no evidence of anti-tumour activity
PK parameters of pertuzumab in the presence of docetaxel compared with single agent ([2]; 1050 mg cycles 1 and 2, 840 mg cycle 1 and 420 mg cycle 2): comparable with single agent values
AUC0-last mean (range) [2, 6]: 1491 (914–2289) μg day ml^−1
AUC0-∞ mean (range) [2, 6]: 2762 (1639–3827) μg day ml^−1
Cl mean (range) [2, 6]: 169 (110–256) ml per day
Cmax mean (range) [2, 6]: 150 (102–233) μg ml^−1
Vss mean (range) [2, 6]: 4233 (2823–7058) ml
AUC0-last mean (range) [2, 7]: 1749 (1214–3083) μg day ml^−1
AUC0-∞ mean (range) [2, 7]: 2796 (1604–5116) μg day ml^−1
Cl mean (range) [2, 7]: 329 (164–524) ml per day
Cmax mean (range) [2, 7]: 255 (169–447) μg ml^−1
AUC0-last mean (range) [2, 8]: 2390 (1733–3355) μg day ml^−1
AUC0-∞ mean (range) [2, 8]: 3951 (2348–4980) μg day ml^−1
Cl mean (range) [2, 8]: 282 (211–447) ml per day
Cmax mean (range) [2, 8]: 301 (143–394) μg ml^−1
Vss mean (range) [2, 8]: 5214 (2975–7036) ml
AUC0-last mean (range) [2, 9]: 3500 (3010–4346) μg day ml^−1
AUC0-∞ mean (range) [2, 9]: 6856 (4521–11426) μg day ml^−1
Cmax mean (range) [2, 9]: 368 (253–463) μg ml^−1
Vss mean (range) [2, 9]: 4672 (3023–6580) ml
Recommended phase II dose of pertuzumab in the combination ([3]; in vivo, iv): 420 mg
Terminal elimination half-life ([4]; in vivo): 2–4 weeks
Tolerability ([4]; in vivo): well tolerated
Maximum tolerated dose ([4]; single-agent pertuzumab, phase I studies, not reached, ref Agus et al, 2005): > 15 mg/kg

CC(=O)O[C@@]12CO[C@@H]1C[C@H](O)[C@@]1(C)C(=O)[C@H](O)C3=C(C)[C@@H](OC(=O)[C@H](O)[C@@H](NC(=O)OC(C)(C)C)c4ccccc4)C[C@@](O)([C@@H](OC(=O)c4ccccc4)[C@H]21)C3(C)C [docetaxel, Docetaxel]
Recommended phase II dose of docetaxel in the combination ([3]; with pertuzumab 420 mg following a loading dose of 840 mg, intravenously every 3 weeks): 75 mg m^−2
Cl mean (range) [5, 10]: 36 (23–40) × 10^3 ml h m^−2
Vss mean (range) [5, 10]: 102 (64–154) × 10^4 ml m^−2
Cl mean (range) [5, 11]: 33 (28–39) × 10^3 ml h m^−2
Vss mean (range) [5, 11]: 79 (42–100) × 10^4 ml m^−2
Cl mean (range) [5, 12]: 24 (15–34) × 10^3 ml h m^−2
Vss mean (range) [5, 12]: 57 (20–110) × 10^4 ml m^−2
Cl mean (range) [5, 13]: 22 (13–31) × 10^3 ml h m^−2
Vss mean (range) [5, 13]: 41 (18–70) × 10^4 ml m^−2
Cl mean (range) [5, 14]: 22 (12–41) × 10^3 ml h m^−2
Vss mean (range) [5, 14]: 43 (16–76) × 10^4 ml m^−2
Cl mean (range) [5, 15]: 18 (12–28) × 10^3 ml h m^−2
Vss mean (range) [5, 15]: 25 (16–32) × 10^4 ml m^−2
Pharmacokinetic drug–drug interaction (Cmax, AUC and clearance of docetaxel alone vs in combination with pertuzumab) ([5]; cycle 1 alone vs cycle 2 combined): no drug–drug interaction
AUC(0-inf) [5, 16]: 1840 ng·h/mL
Cmax [5, 16]: 1640 ng/mL
half-life [5, 16]: 16.9 h
AUC(0-inf) [5, 17]: 3740 ng·h/mL
Cmax [5, 17]: 3130 ng/mL
half-life [5, 17]: 12.7 h
AUC(0-inf) [5, 18]: 5930 ng·h/mL
Cmax [5, 18]: 5450 ng/mL
half-life [5, 18]: 9.59 h
AUC(0-inf) [5, 10]: 1730 ng·h/mL
Cmax [5, 10]: 1700 ng/mL
half-life [5, 10]: 19.7 h
AUC(0-inf) [5, 12]: 3500 ng·h/mL
Cmax [5, 12]: 2720 ng/mL
half-life [5, 12]: 15.2 h
AUC(0-inf) [5, 14]: 5220 ng·h/mL
Cmax [5, 14]: 4700 ng/mL
half-life [5, 14]: 12.8 h
